Test system: thoracic aorta
Assay: Aortic calcification in warfarin-treated rats: total calcium in thoracic aorta extract by atomic absorptiometry
Assay type: in vivo
Conditions: for Pre-formed calcium crystals / aortic calcification on high vitamin K diet: "high K": 6 weeks warfarin, then 6 weeks diet with 100 μg/g vitamin K, FIG. 6, means of K1 and K2 groups; for Difference between the outcomes for K1 and K2: high vitamin K diet after 6 weeks warfarin
Method: We performed and experiment using 48 rats. Each point in the various curves shown in FIGS. 3-6 is the mean of six rats, which were sacrificed. The thoracic aorta was dissected, homogenized, and precipitated calcium salts were dissolved in formic acid. The total calcium concentration in the extract was assessed by atomic absorptiometry, and is expressed as microgram calcium per gram of tissue.
Six of them were killed at baseline, six after 6 weeks, and the last six after 12 weeks. Apart from the cellular calcium, no accretion of calcium was observed during the test period. […] The protocol used involves the oral administration of a mixture of warfarin (3 mg/g of food) and vitamin K1 (1.5 mg/g of food) and is explained extensively in: H. M. H. Spronk et al, Tissue-specific utilization of menaquinone-4 results in the prevention of arterial calcification in warfarin-treated rats, Journal of Vascular Research 2003; 40:531-537. This treatment is designated as “low K”. Six rats were killed after 6 weeks of treatment, and another six after 12 weeks of treatment.
The other rats were first treated for six weeks with warfarin. One group of animals was subsequently fed the standard diet containing 5 μg vitamin K per g of food (indicated as “norm K”). […] Apparently, the presence of calcium precipitates is a sufficient trigger to continue further calcification (see FIG. 5) when using a normal diet.
Finally, we used two groups of six rats who had received the first 6-week treatment with warfarin, and a high vitamin K diet in the second 6-week period. One group received a diet containing […] of vitamin K1, the other one a diet containing 100 μg/g of vitamin K2 (menaquinone-4). Since there was no difference between the outcomes for K1 and K2, we present the means of both groups in FIG. 6 (designated as “high K”). […] This may be related to the relatively high dose used, and different efficacies may still be found from dose-response experiments. […] It may be expected that after prolonged treatment all calcified precipitates will dissolve by high vitamin K intake. The dose used for dissolving calcified precipitates in the aorta was 20 times the normal dose used (compared to the recommended allowance in humans). If extrapolated to humans the effective intake of vitamin K should thus be increased from 100 μg/day to 2 mg/day. Experiments in which lower doses are used will be initiated. However, it is likely that a similar effect will be observed at lower doses, even as low as 1-2 times the normal daily intake. This will depend upon factors such as vitamin K absorption since synthetic supplemented vitamin K is typically absorbed better (e.g. 10-20 fold) than nutritional vitamin K (e.g. which may be bound to chloroplasts in the food matrix).

Compound	Aortic calcification after change to the standard diet ("norm K": 6 weeks warfarin, then standard diet with 5 μg vitamin K per g of food, FIG. 5)	Calcium in the arterial wall ("low K": warfarin 3 mg/g food + vitamin K1 1.5 mg/g food, oral, 6 and 12 weeks, FIG. 4)	Pre-formed calcium crystals / aortic calcification on high vitamin K diet	Difference between the outcomes for K1 and K2
vitamin K	did not stop			
CC(=O)CC(c1ccccc1)c1c(O)c2ccccc2oc1=O (stereo not drawn) [warfarin]		constant increase		
CC1=C(C/C=C(\C)CCC[C@H](C)CCC[C@H](C)CCCC(C)C)C(=O)c2ccccc2C1=O [vitamin K1, phylloquinone]			dissolved to a great deal	no difference
CC(C)=CCC/C(C)=C/CC/C(C)=C/CC/C(C)=C/CC1=C(C)C(=O)c2ccccc2C1=O [vitamin K2, menaquinone-4]			dissolved to a great deal	no difference
